Reference: patent publication US9133228B2, “Guanidinyl-substituted polyamides useful for treating human papilloma virus” (Nanovir, LLC, priority 2011, dated 2015)

Columns and labels:
Type in all cases: cell-based, Human papilloma virus
HPV18 = assay: Inhibition of viral replication in cells that maintain HPV18 DNA, viral DNA quantified by real-time PCR; conditions: cells maintaining HPV18 cultured 72 hours with polyamide; vs DMSO control; highest dose tested 10 μM
Description: (§1) Table 1a lists a number of exemplary polyamides synthesized in accordance with the present invention. The HPLC/MW values given in Table 1b were obtained using low resolution high pressure liquid chromatography/mass spectrometry (LR HPLC/MS), which provides moderate precision masses of single isotopomers rather than average molecular weights or exact masses. Table 2 presents a summary of measured IC50 values of certain of these polyamides against HPV16, HPV18 and HPV31. The IC50 is the concentration of compound required for 50% inhibition of viral replication in vitro. The polyamides were tested in cells that maintain HPV16, HPV18 or HPV31 DNA. Cells maintaining the selected HPV were cultured for 72 hours in the presence of the polyamide. Viral DNA was then quantified using real-time PCR and compared to vehicle (DMSO)-treated control cultures. […] Table 3 presents a summary of measured IC50 and IC90 values of certain of these polyamides against HPV16, HPV18 and HPV31.

HPV31 = assay: Inhibition of viral replication in cells that maintain HPV31 DNA, viral DNA quantified by real-time PCR; conditions: cells maintaining HPV31 cultured 72 hours with polyamide; vs DMSO control; highest dose tested 10 μM
Description: as §1

HPV16 = assay: Inhibition of viral replication in cells that maintain HPV16 DNA, viral DNA quantified by real-time PCR; conditions: cells maintaining HPV16 cultured 72 hours with polyamide; vs DMSO control; highest dose tested 10 μM
Description: as §1

| SMILES | IC50 (HPV18) [nM] | IC50 (HPV31) [nM] | IC50 (HPV16) [nM] |
| --- | --- | --- | --- |
| CN(C)CCCNC(=O)CCNC(=O)c1cc(NC(=O)c2cc(NC(=O)c3cc(NC(=O)CCNC(=O)c4cc(NC(=O)c5cc(NC(=O)c6cc(NC(=O)CCNC(=O)c7cc(NC(=O)c8cc(NC(=O)CCCNC(=O)c9cc(NC(=O)c%10cc(NC(=O)CCNC(=O)c%11nc(NC(=O)c%12cc(NC(=O)c%13cc(NC(=O)CCNC(=O)c%14cc(NC(=O)c%15cc(N=C(N(C)C)N(C)C)cn%15C)cn%14C)cn%13C)cn%12C)cn%11C)cn%10C)cn9C)cn8C)cn7C)cn6C)cn5C)cn4C)cn3C)cn2C)cn1C [NV1086, TMG-PyPyβPyPyImβPyPy-γ-PyPyβPyPyPyβPyPyPyβ-Dp•3TFA] | 62 | 16 | 43 |
| CN(C)CCCNC(=O)CCNC(=O)c1cc(NC(=O)CCNC(=O)c2cc(NC(=O)c3cc(NC(=O)c4cc(NC(=O)CCNC(=O)c5cc(NC(=O)c6cc(NC(=O)CCNC(=O)c7cc(NC(=O)CCCNC(=O)c8nc(NC(=O)c9cc(NC(=O)CCNC(=O)c%10cc(NC(=O)c%11cc(NC(=O)CCNC(=O)c%12cc(NC(=O)c%13cc(NC(=O)c%14cc(N=C(N(C)C)N(C)C)cn%14C)cn%13C)cn%12C)cn%11C)cn%10C)cn9C)cn8C)cn7C)cn6C)cn5C)cn4C)cn3C)cn2C)cn1C [NV1088, TMG-PyPyPyβPyPyβPyIm-γ-PyβPyPyβPyPyPyβPyβ-Dp•3TFA] | 35 | 14 | 20 |
| CN(CCCN)CCCNC(=O)CCNC(=O)c1cc(NC(=O)c2cc(NC(=O)c3cc(NC(=O)CCNC(=O)c4cc(NC(=O)c5cc(NC(=O)c6cc(NC(=O)CCCNC(=O)c7cc(NC(=O)c8cc(NC(=O)CCNC(=O)c9nc(NC(=O)c%10cc(N=C(N(C)C)N(C)C)cn%10C)cn9C)cn8C)cn7C)cn6C)cn5C)cn4C)cn3C)cn2C)cn1C [NV1094, TMG-PyImβPyPy-γ-PyPyPyβPyPyPyβ-Ta•4TFA] | > 10000 | > 10000 | > 10000 |

Results, then the molecule that gave them:

| IC50 (HPV18) [nM] | IC50 (HPV31) [nM] | IC50 (HPV16) [nM] | SMILES |
| --- | --- | --- | --- |
| 68 | 46 | 68 | CN(C)CCCNC(=O)CCNC(=O)c1cc(NC(=O)CCNC(=O)c2cc(NC(=O)c3cc(NC(=O)c4cc(NC(=O)CCNC(=O)c5cc(NC(=O)c6cc(NC(=O)CCNC(=O)c7cc(NC(=O)CCCNC(=O)c8nc(NC(=O)c9cc(NC(=O)CCNC(=O)c%10cc(NC(=O)c%11cc(NC(=O)CCNC(=O)c%12cc(NC(=O)c%13cc(N=C(N(C)C)N(C)C)cn%13C)cn%12C)cn%11C)cn%10C)cn9C)cn8C)cn7C)cn6C)cn5C)cn4C)cn3C)cn2C)cn1C [NV1089, TMG-PyPyβPyPyβPyIm-γ-PyβPyPyβPyPyPyβPyβ-Dp•3TFA] |
| 53 | 22 | 51 | CN(CCCN)CCCNC(=O)CCNC(=O)c1cc(NC(=O)CCNC(=O)c2cc(NC(=O)c3cc(NC(=O)c4cc(NC(=O)CCNC(=O)c5cc(NC(=O)c6cc(NC(=O)CCNC(=O)c7cc(NC(=O)CCCNC(=O)c8nc(NC(=O)c9cc(NC(=O)CCNC(=O)c%10cc(NC(=O)c%11cc(NC(=O)CCNC(=O)c%12cc(NC(=O)c%13cc(N=C(N(C)C)N(C)C)cn%13C)cn%12C)cn%11C)cn%10C)cn9C)cn8C)cn7C)cn6C)cn5C)cn4C)cn3C)cn2C)cn1C [NV1090, TMG-PyPyβPyPyβPyIm-γ-PyβPyPyβPyPyPyβPyβ-Ta•4TFA] |
| 36 | 35 | 24 | CN(CCCN)CCCNC(=O)CCNC(=O)c1cc(NC(=O)CCNC(=O)c2cc(NC(=O)c3cc(NC(=O)c4cc(NC(=O)CCNC(=O)c5cc(NC(=O)c6cc(NC(=O)CCNC(=O)c7cc(NC(=O)[C@H](N)CCNC(=O)c8nc(NC(=O)c9cc(NC(=O)CCNC(=O)c%10cc(NC(=O)c%11cc(NC(=O)CCNC(=O)c%12cc(NC(=O)c%13cc(N=C(N(C)C)N(C)C)cn%13C)cn%12C)cn%11C)cn%10C)cn9C)cn8C)cn7C)cn6C)cn5C)cn4C)cn3C)cn2C)cn1C [NV1096, TMG-PyPyβPyPyβPyIm-γNH2-PyβPyPyβPyPyPyβPβ-Ta•5TFA] |
